This note sets out measurements from patent US11473077B2, “Engineered tyrosine ammonia lyase” (Codexis, Inc., priority 2018, dated 2022).

The target in test [1] is T1, Flavobacterium johnsoniae tyrosine ammonia lyase (TAL), SEQ ID NO: 6 (Flavobacterium johnsoniae, UniProt A5FKY3).
T1 sequence (A5FKY3 1-506): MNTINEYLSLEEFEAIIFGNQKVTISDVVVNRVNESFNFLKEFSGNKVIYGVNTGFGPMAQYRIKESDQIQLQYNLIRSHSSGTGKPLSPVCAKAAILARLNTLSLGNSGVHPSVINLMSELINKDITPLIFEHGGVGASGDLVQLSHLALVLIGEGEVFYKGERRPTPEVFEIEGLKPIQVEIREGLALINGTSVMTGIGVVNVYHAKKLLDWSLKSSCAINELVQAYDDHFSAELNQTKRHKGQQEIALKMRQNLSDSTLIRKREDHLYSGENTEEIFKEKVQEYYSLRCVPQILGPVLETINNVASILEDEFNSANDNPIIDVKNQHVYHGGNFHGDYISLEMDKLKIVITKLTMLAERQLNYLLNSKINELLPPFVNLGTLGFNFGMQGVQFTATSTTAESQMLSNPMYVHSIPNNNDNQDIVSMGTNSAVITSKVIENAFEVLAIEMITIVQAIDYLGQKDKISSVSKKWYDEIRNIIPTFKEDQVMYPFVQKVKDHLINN
Description: SFP characterization assay for kinetic parameters on tyrosine (Michaelis-Menten fit, absorbance at 290 nm). The test is classed as biochemical. The settings on record: 0-2.48 mM tyrosine, 200 mM sodium phosphate, pH 7.0, A290. An excerpt: (§1) Polynucleotide sequences encoding phenylalanine and tyrosine ammonia lyases from Stanieria cyanosphaera (SEQ ID NO: 2), Chroogloeocystis siderophila (SEQ ID NO: 4), Flavobacterium johnsoniae (SEQ ID NO: 6), and Rhodotorula glutinis (SEQ ID NO: 8) were synthesized as the genes of SEQ ID NOS: 1, 3, 5, and 7, respectively. These synthetic genes were cloned into a pCK110900 vector system (See e.g., U.S. Pat. No. 7,629,157 and US Pat. Appln. Publn. Nos. 2016/0244787, and 2006/0195947, all of which are incorporated by reference), and subsequently expressed in an E. coli strain derived from W3110. In some embodiments, expression vectors lacking antimicrobial resistance markers find use.
(§2) E. coli cultures transformed with plasmids containing TAL variants were plated onto LBagar plates with 1% glucose and in some instances, 30 μg/mL chloramphenicol, and grown overnight at 37° C. A single colony from each culture was transferred to 5 mL of Luria Broth (LB) with 1% glucose and 30 μg/mL chloramphenicol, where appropriate. The cultures were grown for 18 h at 30° C., 250 rpm, and subcultured approximately 1:50 into 250 ml of TB with 30 μg/mL of chloramphenicol. The cultures were grown for approximately 3-4 h at 30° C., 250 rpm, to an OD600 of 0.6-0.8, and induced with 1 mM of IPTG. The cultures were grown for 20 h at 30° C., 250 rpm. Cells were harvested by centrifugation (7000 rpm×10 min, 4° C.), and the supernatants were discarded. The pellets were resuspended in 30 mL of 20 mM sodium phosphate, pH 8.0, with 150 mM NaCl in some instances, and lysed using a single pass through a microfluidizer (Microfluidics), at 110 psi. The lysates were pelleted (10,000× rpm, 30 min, 4° C.), and the supernatants were heated for 1-2 hours at 60-65° C. in a water bath before being pelleted again (10,000× rpm, 1 h, 4° C.). The resulting supernatants were then frozen and lyophilized to generate powders containing the expressed enzymes.
(§3) SFP Characterization Assay for Activity on Tyrosine and Phenylalanine
(§4) To evaluate if the mutations in the TAL variants had altered kinetics, the Michaelis constant (Km) and maximum velocity (Vmax) were determined for each variant. To assay, 20 μl of diluted TAL variants at 1 g/L and 180 μL of 2-fold serially diluted tyrosine (0-2.48 mM tyrosine in 200 mM sodium phosphate, pH 7.0), were added to the wells of a 96-well UV-STAR® plate (Greiner Bio-One). The reactions were mixed briefly, and the activity was determined by tracking the absorbance at 290 nm over time (every 14-37s over 5 min) using a SPECTRAMAX® Plus 384 or a SPECTRAMAX® 190 (Molecular Devices) absorbance microplate reader. The Vmax and Km for each tested TAL variant was determined by fitting the data to a Michaelis-Menten equation using non-linear regression.

For test [2], the target named is T2, Stanieria cyanosphaera tyrosine ammonia lyase (TAL), wild type, SEQ ID NO: 2 (Stanieria cyanosphaera, UniProt K9XQ92).
T2 sequence (K9XQ92 1-562): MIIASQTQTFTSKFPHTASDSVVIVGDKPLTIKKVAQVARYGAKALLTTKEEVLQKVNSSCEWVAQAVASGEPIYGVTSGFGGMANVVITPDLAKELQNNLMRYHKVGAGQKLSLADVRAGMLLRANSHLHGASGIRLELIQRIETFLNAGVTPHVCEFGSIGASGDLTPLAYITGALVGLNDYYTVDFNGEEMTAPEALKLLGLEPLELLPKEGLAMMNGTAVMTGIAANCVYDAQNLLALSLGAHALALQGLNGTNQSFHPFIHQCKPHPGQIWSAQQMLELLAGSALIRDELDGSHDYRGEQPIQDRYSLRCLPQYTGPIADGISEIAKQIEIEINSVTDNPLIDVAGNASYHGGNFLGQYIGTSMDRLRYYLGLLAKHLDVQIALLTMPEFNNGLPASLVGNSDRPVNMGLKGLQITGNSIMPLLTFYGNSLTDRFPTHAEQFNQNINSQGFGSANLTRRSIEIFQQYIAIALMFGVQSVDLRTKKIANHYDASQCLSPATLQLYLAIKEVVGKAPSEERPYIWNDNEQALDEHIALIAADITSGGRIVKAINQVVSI
The test is described as above. It is filed as biochemical. Particulars: 0-2.48 mM tyrosine, 200 mM sodium phosphate, pH 7.0, A290.
Excerpt: as §1, §2, §3, §4

As a reminder, the Km is the concentration of substrate that gives half-maximal velocity.

Some results are limits rather than exact numbers.

Consider `N[C@@H](Cc1ccc(O)cc1)C(=O)O` [Tyr, L-tyrosine], for which the Michaelis-Menten constant (Km) was less than 50 µM in test [1] (read-out: Tyr Km) and 50 to 150 µM in test [2] (read-out: Tyr Km). The “Tyr Vmax” value was “+ (“+” = 0.5-1)” in test [1] (diluted TAL at 1 g/L) and “+++ (“+++” > 5)” in test [2] (diluted TAL at 1 g/L).
